Test results from article PMC3243694, “Integrated Dataset of Screening Hits against Multiple Neglected Disease Pathogens” (PLoS Neglected Tropical Diseases, 2011).

Key:
[1] = system: MRC-5 cell line (diploid human embryonic lung fibroblast); experiment: Cytotoxicity on MRC-5 cells; format: cell-based
Description: [table] An important part of the screen is the evaluation of all compounds for cytotoxicity using the diploid human embryonic lung fibroblast MRC-5 cell line (Figure 2). Further evaluation of cytotoxicity also takes advantage of the assays for intracellular protozoan parasites, as in the case of L. infantum and T. cruzi, which include murine peritoneal macrophage host cells and MRC-5SV2 human lung fibroblast cells, respectively, in the culture system.

[2] = system: Plasmodium falciparum K1 strain; experiment: Anti-Plasmodium activity assay (Malstat); format: cell-based; details: P. falciparum K1, 72 h
Procedure: (§1) The compound set was tested against the following parasites: intra-erythrocytic forms in human red blood cells of P. falciparum K1 strain (malaria), [16], [32], [33], [35], bloodstream forms of T. brucei Squib 427 strain (human African trypanosomiasis, HAT), [31], [32], [34], intracellular amastigotes of T. cruzi Tulahuen CL2, beta- galactosidase strain (Chagas' Disease), [32]–[35], intracellular amastigotes of L. infantum MHOM/MA(BE)/67 (leishmaniasis), [32]–[36], larval and/or adult worms of S. mansoni Puerto Rican strain (schistosomiasis), [31], [37], microfilariae of B. malayi (lymphatic filariasis), [30] and microfilariae of O. ochengi or O. lienalis (onchocerciasis), [30]. It should be noted that the human pathogen for onchocerciasis is Onchocerca volvulus, but due to lack of a suitable in vitro assay or animal models for this pathogen, O. ochengi and lienalis, which are both animal pathogens, are used in the primary and secondary assays, [30].

[3] = system: Trypanosoma cruzi, Tulahuen CL2 strain; experiment: Antitrypanosomal activity assay, T. cruzi in MRC-5 cells; format: cell-based; details: T. cruzi Tulahuen CL2 in MRC-5 cells, 7 days
Procedure: as §1
171 of the 744 actives passed the initial criterion of IC50<1 µg/ml for T. cruzi Tulahuen CL2, beta galactosidase strain maintained on MRC-5SV2 cells in MEM medium (MRC-5 cell/parasite inoculum: 4.10^3 cells/well+4.10^4 parasites/well), supplemented with […] L-glutamine, 16.5 mM NaHCO3 and 5% heat inactivated fetal calf serum. […] Of these, 109 were eliminated [structures #1–6] for poor selectivity versus mammalian cells (SI<50) and an additional 11 due to undesirable chemical attributes. The remaining 51 compounds were sorted into 10 series (45 compounds) and 6 singletons [structures # 21, 22]. Two of these series with excellent potency against T. cruzi, limited activity against other protozoa and SI values >50 (not shown), have been transferred to DNDi for further evaluation.

[4] = system: Trypanosoma brucei brucei Squib-427 strain; experiment: Antitrypanosomal activity assay, T. brucei (resazurin); format: cell-based; details: T. brucei Squib 427 bloodstream forms, 72 h
Procedure: as §1

[5] = system: Schistosoma mansoni adult worms; experiment: Anti-Schistosoma activity assay (adult worm motility); format: cell-based; details: S. mansoni adult worms; 12.5 µM (method: 10 µg/ml or 12.5 µM)
Procedure: as §1
A subset of 9478 of the 10,000 compound collection was tested against the Puerto Rican strain of S. mansoni. 6144 of these were tested in a primary larval assay followed by the ex-vivo adult secondary screen. The remainder was screened only in the adult assay. […] The 65 compounds were sorted by chemical attractiveness, potency against adult schistosomes in culture, selectivity against other parasites, and toxicity to mammalian cells in culture. Based on this analysis, 5 series encompassing 13 compounds were chosen for advancement through the African Network for Drug and Diagnostic Innovation (ANDI) and other PDPs. Representative structures [structures # 13, 27, 28] are shown (Table S1). These compounds are unburdened by obvious toxic moieties, have acceptable compliance with the Lipinski rules, are selectively active against schistosomes and are not overtly toxic to mammalian cells. It has unfortunately not been possible to titrate all of these hits in culture; of about 50% for which such data are available, none has an IC50<2 µg/ml (which is the initial potency criteria).

[6] = system: Brugia malayi microfilariae; experiment: Anti-Brugia malayi microfilariae motility assay; format: cell-based; details: B. malayi microfilariae; 12.5 µM
Procedure: as §1
(§2) As result of logistics issues attributed to lost shipments of some compounds, only 6160 molecules of the 10,000 compound set were tested, at a uniform molarity, against B. malayi, including 6063 against microfilariae and 756 against adult worms (these sets overlap). […] Greatest priority was given to compounds with activity against adult worms, as no macrofilaricide is available for use in control campaigns and the activity of ivermectin as a microfilaricidal agent is unlikely to be bettered in a new series. Of the test set, 53 compounds met the activity criterion for microfilariae (100% motility reduction) and an additional 58 inhibited adult worm motility ≥75% at 10 µM. These were titrated to determine an IC50 value to support prioritization. Following cytotoxicity triage [structures # 1, 4, 6], eight compounds met the activity criterion for adult worms (i.e., 100% inhibition of adult worm motility), four of which were also active against microfilariae [structures # 14, 29, 30, 32]. […] Of these, the most interesting was TDR76699 [structure # 29]; this compound has very good activity against adult worms (IC50 = 0.1 µg/ml) and is also active against microfilariae (IC50 = 0.7 µg/ml). None of the other compounds tested against adult parasites had IC50 values ≤0.5 µg/ml, a threshold which would reduce concerns about specificity. However, a few series [structures # 31, 33, 34], appear interesting for future medicinal chemistry projects.

[7] = system: Brugia malayi adult worms; experiment: Anti-Brugia malayi adult worm motility assay; format: cell-based; details: B. malayi adult worms; 12.5 µM
Description: as §2, with “In some cases, particularly for the antifilarial screens, a second whole organism test with adult stage parasites is included prior to animal evaluation. The decision to utilize microfilariae for primary screening was based on throughput and biological considerations. It is difficult to acquire enough adult filariae to enable screening more than 1000 compounds per year, a rate far lower than needed for timely evaluation of the available compounds. In light of this situation, and considering that we are targeting molecules that are active on both stages, microfilariae screening was adopted as a suitable filter to identify compounds with potential macrofilaricidal activity. As” for “As”, “Of the test set, 53 compounds met the activity criterion for microfilariae (100% motility reduction) and an additional 58 inhibited adult worm motility ≥75% at 10 µM.” left out

[8] = system: Onchocerca (lienalis or ochengi) microfilariae; experiment: Anti-Onchocerca microfilariae motility assay; format: cell-based, Onchocerca lienalis or O. ochengi
Procedure: as §1
(§3) 4240 compound s were screened against O. ochengi at the University of Buea in Cameroon, while a subset of […] compounds was successfully screened in UK by the Northwick Park Institute for Medical Research against O. lienalis, at a uniform molarity. […] After removing molecules that were toxic to mammalian cells (IC50<5 µg/ml), 292 molecules remained for further evaluation. […] From the latter sub-set, […] distinct chemical series and one singleton [structure # 35] were active against both microfilaria and adults. One series [structures # 2, 3] was deemed not interesting due to lack of selectivity against mammalian cells. The remaining series is being transferred to ANDI for further progression as part of a new collaboration.

Onchocerca adult worms = format: cell-based
Description: In some cases, particularly for the antifilarial screens, a second whole organism test with adult stage parasites is included prior to animal evaluation. The decision to utilize microfilariae for primary screening was based on throughput and biological considerations. It is difficult to acquire enough adult filariae to enable screening more than 1000 compounds per year, a rate far lower than needed for timely evaluation of the available compounds. In light of this situation, and considering that we are targeting molecules that are active on both stages, microfilariae screening was adopted as a suitable filter to identify compounds with potential macrofilaricidal activity.
as §3

| SMILES | CYT IC50 [1] | MAL IC50 [2] | CHA IC50 [3] | HAT IC50 [4] | SCH % Motility Reduction at 12.5µM [5] | LF/MF % Motility Reduction at 12.5µM [6] | LF/AW % Motility Reduction at 12.5µM [7] | ONC/MF % Motility Reduction at 12.5µM [8] | ONC/AW % worm Mortality @ 12.5µM (Onchocerca adult worms) |
| --- | --- | --- | --- | --- | --- | --- | --- | --- | --- |
| CCOC(=O)c1ccc(NC(=O)CSc2nnc(NC(=O)C34CC5CC(CC(C5)C3)C4)s2)cc1 [TDR76705] | >15.02 µg/mL | >15.02 µg/mL | >15.02 µg/mL | >15.02 µg/mL | 0% | 100% | 100% | 33.3% | – |
| CCC(=O)c1c(NC(=O)c2ccc(C)cc2)sc2c1CCN(CC)C2 [TDR76871] | >11.79 µg/mL | 1.87 µg/mL | 0.48 µg/mL | 0.32 µg/mL | 0% | 33.3% | 22.3% | 0% | – |
| COC(=O)c1c(NC(=O)c2cc3ccccc3oc2=O)sc2c1CCN(Cc1ccccc1)C2 [TDR76873] | 8.92 µg/mL | >15.33 µg/mL | 0.64 µg/mL | >15.33 µg/mL | 0% | 100% | 100% | 40% | – |
| O=C(Nc1nc2c(s1)CSc1ccccc1-2)C1COc2ccccc2O1 (centres unmarked) [TDR77035] | 2.62 µg/mL | 4.75 µg/mL | 0.5 µg/mL | 0.37 µg/mL | 100% | 33% | 0% | 100% | – |
| O=C(COc1cccc2c1CCN(Cc1ccccc1F)C2=O)N1CCC(Cc2ccccc2)CC1 [TDR77144] | 4.56 µg/mL | 4.54 µg/mL | 0.56 µg/mL | 0.47 µg/mL | 0% | 100% | 100% | 0% | – |
| Cc1cc(NC(=O)CSc2ccc3nnc(-c4cccs4)n3n2)no1 [TDR78826] | >11.17 µg/mL | 0.16 µg/mL | 4.97 µg/mL | – | 0% | – | – | 6.7% | 0% |
| CCCc1cc(=O)[nH]c(-n2nc(C)cc2NC(=O)C23CC4CC(CC(C4)C2)C3)n1 [TDR79936] | <0.12 µg/mL | <0.12 µg/mL | <0.12 µg/mL | <0.12 µg/mL | 100% | – | – | 100% | 75% |
| CSCc1csc(NC(=O)Cc2ccc(Cl)cc2)n1 [TDR81206] | 3.7 µg/mL | 5.98 µg/mL | 2.47 µg/mL | 3.0 µg/mL | 0% | – | – | 100% | 75% |
| O=C(Nc1nc2c(s1)CSc1ccccc1-2)C1CCCN1S(=O)(=O)c1cccs1 (centres unmarked) [TDR83016] | 1.88 µg/mL | 3.71 µg/mL | 0.5 µg/mL | 0.45 µg/mL | 100% | 100% | 0% | 100% | – |
